Test results taken from patent US20220096652A1, “ACETAL-BASED CLEAVABLE LINKERS” (Synaffix B.V., priority 2019, published 2022).
Entries after “also recorded” stand apart in the source; their conditions may differ.

Key:
[1] = Incubation in 1:1 PBS (pH 7.4) / DMF, UPLC-MS; type: physicochemical; conditions: pH 7.4, Papain NO, 1:1 PBS/DMF, overnight; based on peak area (UV 254 nm)
Procedure: To a 1:1 mixture of PBS (pH 7.4) and DMF (199 μL) was added a 10 mM solution of 10 in DMF (1 μL). The mixture was incubated overnight and analyzed by UPLC-MS. Intermediate 10-Int and DXd were not observed.
To a 1:1 mixture of PBS (pH 7.4) and DMF (199 μL) was added a 10 mM solution of 18 in DMF (1 μL). The mixture was incubated overnight and analysed by UPLC-MS. Intermediate 18-Int and DXd were not observed.
To a 1:1 mixture of PBS (pH 7.4) and DMF (199 μL) was added a 10 mM solution of 26 in DMF (1 μL). The mixture was incubated overnight and analysed by UPLC-MS. Intermediate 26-Int and DXd were not observed.

[2] = Negative control: incubation in histidine acetate buffer pH 6 without Papain, UPLC-MS; type: physicochemical; conditions: pH 6, Papain NO, 37° C., 18 h (10, 18) or 67 h (26); for Ratio DXd / s.m.: based on peak area (UV 254 nm)
Procedure: To an Eppendorf vial containing histidine acetate buffer (110 μL, 20 mM, pH 6) was added a solution of 10 in DMF (3 μL, 10 mM).
To an Eppendorf vial containing histidine acetate buffer (110 μL, 20 mM, pH 6) was added a solution of 18 in DMF (3 μL, 10 mM).
To an Eppendorf vial containing histidine acetate buffer (110 μL, 20 mM, pH 6) was added a solution of 26 in DMF (3 μL, 10 mM). […] The intermediate 26-Int was not observed.

[3] = molecular target: T1, Papain (Carica papaya, UniProt P00784); assay: Papain digestion of linker-drug in histidine acetate buffer, UPLC-MS; type: in vitro ADME; conditions: pH 6, Papain YES, 37° C., 19 h (10, 18) or 67 h (26)
T1 sequence (P00784 134-345): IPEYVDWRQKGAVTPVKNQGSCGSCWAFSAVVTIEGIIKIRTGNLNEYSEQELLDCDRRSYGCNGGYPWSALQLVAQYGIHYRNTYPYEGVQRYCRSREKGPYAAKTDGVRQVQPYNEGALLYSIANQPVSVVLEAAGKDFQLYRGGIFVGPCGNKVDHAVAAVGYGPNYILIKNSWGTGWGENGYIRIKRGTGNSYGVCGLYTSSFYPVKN
Procedure: To an Eppendorf vial containing histidine acetate buffer (50 μL, 20 mM, pH 6) were added a solution of 10 in DMF (3 μL, 10 mM) and a Papain solution in histidine acetate buffer (0.5 mg/mL, 20 mM buffer, pH 6).
To an Eppendorf vial containing histidine acetate buffer (50 μL, 20 mM, pH 6) were added a solution of 18 in DMF (3 μL, 10 mM) and a Papain solution in histidine acetate buffer (0.5 mg/mL, 20 mM buffer, pH 6).
To an Eppendorf vial containing histidine acetate buffer (50 μL, 20 mM, pH 6) were added a solution of 26 in DMF (3 μL, 10 mM) and a Papain solution in histidine acetate buffer (0.5 mg/mL, 20 mM buffer, pH 6).

Compound	Ratio DXd / s.m. [1]	Ratio DXd / s.m. [2]	Formation of DXd [3]	Formation of DXd [2]
CC[C@@]1(O)C(=O)OCc2c1cc1n(c2=O)Cc2c-1nc1cc(F)c(C)c3c1c2[C@@H](NC(=O)COCOCc1ccc(NC(=O)[C@H](C)NC(=O)[C@@H](NC(=O)OCCOCCNC(=O)OC[C@@H]2[C@@H]4CCC#CCC[C@@H]42)C(C)C)cc1)CC3 [Compound 10]	0	0	only a very small amount of material was transformed into DXd; also recorded: + / −	–
CC[C@@]1(O)C(=O)OCc2c1cc1n(c2=O)Cc2c-1nc1cc(F)c(C)c3c1c2[C@@H](NC(=O)COC(C)OCc1ccc(NC(=O)[C@H](C)NC(=O)[C@@H](NC(=O)OCCOCCNC(=O)OC[C@@H]2[C@@H]4CCC#CCC[C@@H]42)C(C)C)cc1)CC3 (stereo partly shown) [Compound 18]	0	0	–	–
CC[C@@]1(O)C(=O)OCc2c1cc1n(c2=O)Cc2c-1nc1cc(F)c(C)c3c1c2[C@@H](NC(=O)COC1(OCc2ccc(NC(=O)[C@H](C)NC(=O)[C@@H](NC(=O)OCCOCCNC(=O)OC[C@@H]4[C@@H]5CCC#CCC[C@@H]54)C(C)C)cc2)CCCCC1)CC3 [Compound 26]	0	–	–	partial conversion of 26 into DXd; also recorded: + / −
